According to patent US6541471B1, “Benzenesulphonamide compounds” (Les Laboratoires Servier, priority 2001, dated 2003):

What was measured:
[1] = system: platelet aggregation produced by 5-hydroxytryptamine in human platelet-rich plasma (PRP); assay: Platelet aggregation in man induced by 5-hydroxytryptamine; format: cell-based; settings: 5-hydroxytryptamine 10 μM in the presence of 0.3 μM adenosine diphosphate and 1 μM adrenalin, read-out: IC50, inhibition of platelet aggregation produced by 5-hydroxytryptamine
Procedure: (§1) Venous blood is obtained from human volunteers who have not taken aspirin for at least 14 days prior to the experiment. The blood is removed over sodium citrate (0.109 M) (1 vol. of citrate over 9 vol. of blood). Platelet-rich plasma (PRP) is obtained by centrifugation (20° C.) at 200 g for 10 minutes. The number of platelets is on average 250000 PL/mm^3. The PRP is stored at room temperature until the test and is used within 2 hours of having been taken. The TXA2 agonist U46619 is used at a concentration of 1 μM and 5-hydroxytryptamine is used at a concentration of 10 μM, the latter in the presence of 0.3 μM adenosine diphosphate and 1 μM adrenalin.

[2] = system: platelet aggregation induced by the TXA2 agonist U46619 in human platelet-rich plasma (PRP); assay: Platelet aggregation in man induced by the TXA2 agonist U46619; format: cell-based; settings: U46619 1 μM, read-out: IC50, inhibition of platelet aggregation induced by the TXA2 agonist
Procedure: as §1

CN(C)CCCOc1ccccc1CCc1cc(CCNS(=O)(=O)c2ccc(Cl)cc2)cc(CCC(=O)O)c1 [Example 2, 3-[3-(2-{[(4-Chlorophenyl)sulphonyl]amino}ethyl)-5-(2-{2-[3-(dimethylamino)propoxy]phenyl}ethyl)phenyl]propanoic acid]
IC50 [1]: 960 nM | IC50 [2]: 3300 nM
